Consider six substances from PMC10743026, “Virtual Screening Technology for Two Novel Peptides in Soybean as Inhibitors of α-Amylase and α-Glucosidase” (Foods, 2023).

Where two headings read alike, the source gives them in different places. Ends that are not written are not given here.

The target of one test is α-amylase. As to conditions: cited from earlier work. From the text: (§1) Peptides are obtained from the decomposition of proteins. Standard methods for preparing peptides in the food industry include enzymatic hydrolysis and microbial hydrolysis.
In a further test the target is α-glucosidase. Conditions: cited from earlier work.
Excerpt: as §1

The target of test [1] is T1, porcine pancreatic α-amylase (Sus scrofa, UniProt P00690).
T1 construct: purchased Sigma-Aldrich (St. Louis, MO, USA)
T1 sequence (P00690 16-511): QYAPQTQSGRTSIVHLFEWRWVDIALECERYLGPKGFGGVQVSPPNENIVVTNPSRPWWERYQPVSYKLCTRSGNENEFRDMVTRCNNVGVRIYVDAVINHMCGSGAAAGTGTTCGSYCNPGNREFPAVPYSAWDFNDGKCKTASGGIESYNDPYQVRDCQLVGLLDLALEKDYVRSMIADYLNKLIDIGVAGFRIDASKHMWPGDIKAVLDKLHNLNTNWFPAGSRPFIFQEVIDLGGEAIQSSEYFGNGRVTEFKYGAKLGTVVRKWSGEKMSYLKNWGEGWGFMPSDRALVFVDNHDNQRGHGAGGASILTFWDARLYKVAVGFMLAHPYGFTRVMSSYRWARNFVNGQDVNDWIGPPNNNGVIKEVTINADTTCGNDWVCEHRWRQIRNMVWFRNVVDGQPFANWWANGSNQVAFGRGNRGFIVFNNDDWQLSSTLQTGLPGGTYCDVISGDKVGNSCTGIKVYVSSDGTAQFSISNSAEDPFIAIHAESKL
Kind of test: α-Amylase inhibition assay in vitro (starch/DNS). Conditions: synthetic peptides; enzyme 0.5 U/mL, starch 10 mg/mL, PBS pH 6.9–7.2; 20 min premix, 10 min at 37 °C; DNS, 540 nm; mean ± standard error of the mean, three parallels. The format is biochemical. From the text: p-Nitrophenyl-α-D-glucopyranoside (pNPG) and soy protein isolate were obtained from Mackiln (Shanghai, China). DL-dithiothreitol (DTT), iodoacetamide (IAA), formic acid (FA), acetonitrile (ACN), methanol, and porcine pancreatic amylase (PPA) (>10 units/mg) were acquired from Sigma-Aldrich (St. Louis, MO, USA). α-Glucosidase (from Saccharomyces cerevisiae, 26.5 units/mg) and trypsin (from porcine pancreas, 250 units/mg) were obtained from Yuanye Biotech (Shanghai, China). DNS solution was purchased from Rhawn (Shanghai, China). Oligopeptides were prepared with LifeTein (Beijing, China). High-performance liquid chromatography (HPLC)-grade acetonitrile, methanol, and formic acid were obtained from Merck (Darmstadt, Germany). The other chemicals were of analytical grade.
Methods refer to Admassu’s and make appropriate modifications. The starch solution (10 mg/mL), enzyme solution (0.5 U/mL), and soybean peptide solution at different concentrations (5, 10, 15, 20, 25 mg/mL) were prepared, the solvent was PBS (pH 6.9–7.2). […] The absorbance was measured at 540 nm, and the α-amylase inhibition ratio was calculated according to Formula (1):(1) α−Amylase Inhibition Ratio=1−A1−A2/A3−A4×100% where A1, A2, A3, and A4 are the absorbance values of the sample, sample blank, negative control, and blank, respectively.

[2] abbreviates: peptide from egg albumin, ref [19].
The mark [3] stands for this setting: peptide from Camellia seed cake, ref [15].

One may read the IC50 as the concentration that gives 50% inhibition. “KLPGF [peptide segment identified in egg albumin]”: the IC50 was 120 µM at α-amylase (setting [2]) and 59.5 µM on α-glucosidase (setting [2]).

SRNPIYSN: the IC50 in test [1] amounted to 5580 ± 130 µM.

Turning to LDQTPRVF, in test [1], the IC50 is 3080 ± 150 µM.

Turning to “GPPGPA [identified from the skin collagen of the Chinese giant salamander]”, the “inhibition type on α-glucosidase” value with α-glucosidase (peptide from skin collagen of Chinese giant salamander, ref [13]) is reported as “competitive inhibitory effects”.

“GGSK [oligopeptide isolated from Porphyra spp]”: the “inhibition mode on α-amylase” value in the test on α-amylase (peptides from Porphyra spp., ref [11]) is reported as “could still bind with the substrate after binding with α-amylase”.

Turning to “LLLLPSYSEF [identified from Camellia seed cake]”, on α-glucosidase (setting [3]), the IC50 was 1110 µM and the “inhibition type on α-glucosidase” value is recorded as “mixed inhibition”.
